This assay addresses T1, Dihydrofolate reductase (Homo sapiens) (UniProt P00374).
T1 sequence (whole entry): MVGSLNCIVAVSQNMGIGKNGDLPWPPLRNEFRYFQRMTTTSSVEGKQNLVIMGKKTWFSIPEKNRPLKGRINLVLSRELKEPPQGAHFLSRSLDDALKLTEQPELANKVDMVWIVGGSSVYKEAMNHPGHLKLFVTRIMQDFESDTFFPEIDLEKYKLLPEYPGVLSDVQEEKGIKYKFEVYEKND
Description: Inhibitory activity against human lymphoblastoid cell (WIL2) dihydrofolate reductase (DHFR)
In turn, `CCCCCCOc1ccc(N2C(N)=NC(N)=NC2(C)C)cc1` registered a Log 1/Ki app of 5.53. Molecule `CC1(C)N=C(N)N=C(N)N1c1ccc(I)cc1` came in with a Log 1/Ki app of 5.51. The result for `CC1(C)N=C(N)N=C(N)N1c1ccc(OCC(=O)N2CCOCC2)cc1` reads 5.66; that for `CC1(C)N=C(N)N=C(N)N1c1ccc(OCc2ccc(Cl)c(Cl)c2)cc1`, 6.46; that for `CCOC(=O)c1ccc(N2C(N)=NC(N)=NC2(C)C)cc1`, 3.46. With `CC1(C)N=C(N)N=C(N)N1c1ccc(OCc2ccccc2)cc1` the figure was 6.93. With `COC(=O)c1ccc(N2C(N)=NC(N)=NC2(C)C)cc1`, the Log 1/Ki app was found to be 3.85. The result for `Cc1ccccc1SCc1ccc(N2C(N)=NC(N)=NC2(C)C)cc1` reads 7.18. `CC1(C)N=C(N)N=C(N)N1c1ccc(OCc2ccc(CO)cc2)cc1`: the Log 1/Ki app is 7.12.

For the molecule `CCCCCCCCCCCCOc1ccc(N2C(N)=NC(N)=NC2(C)C)cc1`, the Log 1/Ki app came out at 5.85.

In turn, `CCCCc1ccc(N2C(N)=NC(N)=NC2(C)C)cc1` had a Log 1/Ki app of 6.27. The result for `CC1(C)N=C(N)N=C(N)N1c1ccc(OCc2ccc(C(N)=O)cc2)cc1` reads 7.23. The result for `CCCCCCCCCc1ccc(N2C(N)=NC(N)=NC2(C)C)cc1` reads 6.52; that for `CC1(C)N=C(N)N=C(N)N1c1ccc(F)cc1`, 6.15. With `CC1(C)N=C(N)N=C(N)N1c1ccc(Br)cc1` the figure was 5.76.

`CC1(C)N=C(N)N=C(N)N1c1ccc(O)cc1`: the Log 1/Ki app is 4.57. The result for `CC1(C)N=C(N)N=C(N)N1c1ccc(C#Cc2ccccc2)cc1` reads 5.42; that for `CCCOc1ccc(N2C(N)=NC(N)=NC2(C)C)cc1`, 5.57; that for `CC1(C)N=C(N)N=C(N)N1c1ccc(N)cc1`, 4.65. The result for `CC1(C)N=C(N)N=C(N)N1c1ccc(OCCOc2ccc(N)cc2)cc1` reads 6; that for `CC(=O)c1ccc(N2C(N)=NC(N)=NC2(C)C)cc1`, 4.5.

`CC1(C)N=C(N)N=C(N)N1c1ccc(OCc2ccc(S(N)(=O)=O)cc2)cc1` registered a Log 1/Ki app of 7.21.

In the case of `CC1(C)N=C(N)N=C(N)N1c1ccc(SCc2ccccc2)cc1`, the Log 1/Ki app came out at 7.01. In turn, `Cc1cccc(SCc2ccc(N3C(N)=NC(N)=NC3(C)C)cc2)c1` had a Log 1/Ki app of 7.22. In turn, `CC(=O)Nc1ccc(N2C(N)=NC(N)=NC2(C)C)cc1` returned a Log 1/Ki app of 4.23.

Molecule `CC1(C)N=C(N)N=C(N)N1c1ccc(S(C)(=O)=O)cc1` had a Log 1/Ki app of 4.08. The result for `CC1(C)N=C(N)N=C(N)N1c1ccc(S(N)(=O)=O)cc1` reads 3.81; that for `COc1ccc(N2C(N)=NC(N)=NC2(C)C)cc1`, 5.31; that for `CC(C)(C)c1ccc(N2C(N)=NC(N)=NC2(C)C)cc1`, 5.66. With `CC1(C)N=C(N)N=C(N)N1c1ccc(C#N)cc1` the figure was 3.69.

As for `CC1(C)N=C(N)N=C(N)N1c1ccc(C(F)(F)F)cc1`, the Log 1/Ki app was found to be 5.58. The result for `Cc1ccc(N2C(N)=NC(N)=NC2(C)C)cc1` reads 5.97.

Consider `CC1(C)N=C(N)N=C(N)N1c1ccc(CSc2ccccc2)cc1`, for which the Log 1/Ki app was 7.33. With `CCCCCCCCCCCOc1ccc(N2C(N)=NC(N)=NC2(C)C)cc1` the figure was 5.68; with `CC1(C)N=C(N)N=C(N)N1c1ccc(SCc2ccc(Cl)cc2)cc1`, 6.97.
